Patent US6933315B2, “Derivatives of isoindigo, indigo and indirubin and methods of treating cancer” (priority 2001, dated 2005)
Like-named read-outs stand apart in the source and are kept apart here.

How the values were obtained:
PC-3 = assay: Growth inhibition by MTT, PC-3 prostate cancer cells; assay type: cell-based, Human; details: read-out: IC50 PC-3
Procedure: (§1) Growth inhibitory effects of NATURA and other agents on human cancer cells were determined by standard MTT (3-(4,5-dimethylthiazol-2-yl)-2,5-diphenyltetrazolium bromide Test) as described previously. Briefly, cancer cells grown exponentially were aliquoted into 96-well plates at a density of 5000 cells/200 μl per well in RPMI 1640 medium containing 10% FBS overnight. The cells in the plates were then exposed to series of dilution of indicated agent. After 72 h of incubation, 100 μl of the medium was removed from each of the wells and 50 μl of a 1 mg/ml solution of 3-(4,5-dimethylthiazol-2-yl)-2,5-diphenyltetrazolium bromide (MTT) was added to each well and the cells were incubated for additional 4 h. 200 μl of solution of 0.04 N HCl-isopropanol was added to each well to dissolve the black fromazan participates, and absorbance at 540 nm was measured on a 96-Well.

LNCaP = assay: Growth inhibition by MTT, LNCaP prostate cancer cells; assay type: cell-based, Human; details: MTT, 72 h exposure (Table 3), read-out: IC50 LNCaP
Procedure: as §1, with “Briefly, cancer cells grown exponentially were aliquoted into 96-well plates at a density of 5000 cells/200 μl per well in RPMI 1640 medium containing 10% FBS overnight.” left out
(§2) The cells in the plates were then exposed to series of dilution of indicated agent. After 72 h of incubation, 100 μl of the medium was removed from each of the wells and 50 μl of a 1 mg/ml solution of 3-(4,5-dimethylthiazol-2-yl)-2,5-diphenyltetrazolium bromide (MTT) was added to each well and the cells were incubated for additional 4 h. 200 μl of solution of 0.04 N HCl-isopropanol was added to each well to dissolve the black fromazan participates, and absorbance at 540 nm was measured on a 96-Well Microplate Reader. Each experiment was repeated at least three times.

[1] = test system: extracellular signal-regulated protein kinase 2 (ERK2); assay: ERK2 activity from treated LNCaP cells; assay type: cell-based, Human; details: different concentrations, 15 min
Procedure: Assay for cyclin dependent kinase activity: HUVEC and LNCaP cells were cultured in EMB (endothelial cell basal medium) and RPMI 1640 containing 10% FBS, respectively. The cells grown exponentially were exposed to indicated concentrations of meisoindigo or NATURA for 24 hr. The cells were harvested, washed, and total proteins extracted as described previously. One hundred μg of the proteins were immuno-precipitated using antibodies against cdk2, cdk4/6, PKC, ERK2 or cyclin D1 overnight at 4° C. in the presence of a cocktail of protease inhibitors. […] The phosphorylated histone H1 (represent cdk activity) was measured by scintillation counting or by SDS-polyacrylaimde gel electrophoresis. The direct inhibitory effects of Meisoindigo and NATURA were also measured by reaction of immuno-purified specific enzyme from untreated cells directly with the Meisoindigo or NATURA. […]
LNCaP cells at exponential growth phase were exposed to different concentrations of NATURA (panel A & B) for 24 hrs, or to PD98059 (panel C) for 15 min. […] Upper panels are the imagines of x-ray films from SDS-PAGE, and lower panels represent the densities of each band from the films determined by an Imagine Densitometer from the same films (expressed as the percent of control).

DU145 = assay: Growth inhibition by MTT, DU145 prostate cancer cells; assay type: cell-based, Human; details: read-out: IC50 DU145
Procedure: as §1

human cancer cell lines = assay: Growth inhibition by MTT, all tested human cancer cell lines; assay type: cell-based; details: range over breast, colon, prostate lines, three day exposure, read-out: IC50, growth inhibitory effects on all tested human cancer cell lines
Procedure: as §1

SKBR-3 = assay: Growth inhibition by MTT, SKBR-3 breast cancer cells; assay type: cell-based, Human; details: read-out: IC50 SKBR-3
Procedure: as §1

MCF-7 = assay: Growth inhibition by MTT, MCF-7 breast cancer cells; assay type: cell-based, Human
Procedure: as §1
as §2, with “FIGS. 3-5 show the anticancer affects of NATURA in MCF-7 breast cancer cells, DLD-1 colon cancer cells, and LNCaP hormone-dependent prostate cancer cells. The cancer cells grown exponentially were aliquoted into 96-well plates at a density of 5000 cells/200 μl per well in RPMI 1640 medium containing 10% fetal bovine serum (FBS) overnight. The” for “The”

DLD-1 = assay: Growth inhibition by MTT, DLD-1 colon cancer cells; assay type: cell-based, Human
Procedure: as §1
as §2, with “FIGS. 3-5 show the anticancer affects of NATURA in MCF-7 breast cancer cells, DLD-1 colon cancer cells, and LNCaP hormone-dependent prostate cancer cells. The cancer cells grown exponentially were aliquoted into 96-well plates at a density of 5000 cells/200 μl per well in RPMI 1640 medium containing 10% fetal bovine serum (FBS) overnight. The” for “The”

LOVO = assay: Growth inhibition by MTT, LOVO colon cancer cells; assay type: cell-based, Human; details: read-out: IC50 LOVO
Procedure: as §1

Walker 256 = assay: Anticancer activity against Walker 256 sarcoma; details: Walker 256, rat, oral; Indirubin 100 × 9, Meisoindigo 106 × 9 mg/kgxd
Procedure: Anticancer activity against Walker 256: Wistar rats with body weights between 50 to 55 grams, were randomly divided into several groups, ten of each, respectively. Approximately 2×10^6 of the Walker sarcoma cells were transplanted into a Wistar rat. Twenty-four hours after the transplantation, equal molar dosage (0.384 mM/kg) of NATURA or other sugar derivatives were given orally for 10 days. The animals in the control group were given 0.1 ml saline (drug vehicle, negative control) for the same periods of time as treated group. Twenty-four hours after the last administration, the animals were sacrificed and tumors were removed and weighed.
(§3) Briefly, C57 mice, body weight between 18 to 22 grams, and rat, body weight between 50 to 55 grams, were randomly divided into several groups, ten of each, respectively. Approximately 2×10^6 of Lewis cancer cells or Walker sarcoma cells were transplanted into mice or rat. […] The animals in the control group were given 0.1 ml saline (drug vehicle, negative control) for the same periods of time as treated group. The animals at end of the treatment were sacrificed and tumors were removed and weighed.
In order to assess the anticancer activities of NATURA and other sugar derivatives, Wistard rats transplanted with W256 were given the same molar of the tested compounds (0.384 mM/kg) for the same period of time (10 days).

Lewis Lung Cancer = assay: Anticancer activity in Lewis lung carcinoma animal model; assay type: in vivo, C57 mice; details: mice, oral, Indirubin 100 × 9, Meisoindigo 106 × 9 mg/kgxd
Procedure: as §3

[2] = test system: polychromatic erythrocytes from bone marrow; assay: Induction of micronuclei in rodent animals; assay type: in vivo; details: mice, 48 mg/kg intraperitoneally daily for 2 days, positive control
Procedure: Cyclophosphamine at dosage of 48 mg/kg was given intraperitoneally daily for 2 days as positive control. Six hrs after the latest administration, the animals were sacrificed, and polychromatic erythrocytes from bone marrow were stained with Giemsa to count micronuclei.

[3] = molecular target: T1, immuno-purified cdk2 from LNCaP cells (Homo sapiens, UniProt P24941); assay: Direct inhibition of immuno-purified cdk2 activity in vitro; assay type: biochemical; details: 50 μM, immuno-purified cdk2, positive control
T1 construct: Two hundred mg of total protein extracts were immuno-precipitated with cdk2 antibody overnight at 4° C
Procedure: Assay for cyclin dependent kinase activity: HUVEC and LNCaP cells were cultured in EMB (endothelial cell basal medium) and RPMI 1640 containing 10% FBS, respectively. The cells grown exponentially were exposed to indicated concentrations of meisoindigo or NATURA for 24 hr. The cells were harvested, washed, and total proteins extracted as described previously. One hundred μg of the proteins were immuno-precipitated using antibodies against cdk2, cdk4/6, PKC, ERK2 or cyclin D1 overnight at 4° C. in the presence of a cocktail of protease inhibitors. The immuno-precipitates were washed 4 times with protein extraction buffer and once with kinase assay buffer, and reacted with 75 μg/ml histone H1 in the presence of [γ-^32P]-ATP (2.5 μCi/10 μM). The phosphorylated histone H1 (represent cdk activity) was measured by scintillation counting or by SDS-polyacrylaimde gel electrophoresis. The direct inhibitory effects of Meisoindigo and NATURA were also measured by reaction of immuno-purified specific enzyme from untreated cells directly with the Meisoindigo or NATURA.
When immuno-purified cdk2 from LNCaP cells was reacted with histone H1 in the presence of different concentrations of NATURA-β and γ-[^32P]-ATP (2.5 μCi/[…]), the enzyme activity was decreased in a concentration-dependent manner.
Two hundred mg of total protein extracts were immuno-precipitated with cdk2 antibody overnight at 4° C. After 4 washes with PBSTDS, and once with kinase assay buffer, the immuno-purified enzyme was then reacted for 10 min with 10 mg of histone H1 in the presence of different concentrations of NATURA or 50 mM of genistein (as a positive control) and γ-[^32P]-ATP (2.5 mCi/10 mM). The phosphorylated histone H1 (reflecting cdk2 activity) was detected either by SDS-PAGE (upper panel), or radioactive scintillation counting (lower panel, after eliminating free γ-[^32P]-ATP).

[4] = Homo sapiens, PC-3, MTT, 72 h exposure
[5] = Homo sapiens, DLD-1, 72 h exposure

**Q.** How did the IC50 (PC-3; [4]) turn out when `CC(C)(C)NC(=O)[C@H]1CC[C@H]2[C@@H]3CC[C@H]4NC(=O)C=C[C@]4(C)[C@H]3CC[C@]12C` [Proscar] was run?
**A.** The IC50 was 134 ± 12.9 µM.

**Q.** And the IC50 (LNCaP; Homo sapiens, LNCaP)?
**A.** Its IC50 is 40.6 ± 7.12 µM.

**Q.** How did the “effect on ERK2” value [1] turn out when `COc1cccc(-c2cc(=O)c3ccccc3o2)c1N` [PD98059] was run?
**A.** The value was “concentration-dependent inhibitory effects”.

**Q.** With `CS(=O)(=O)Nc1ccc([N+](=O)[O-])cc1OC1CCCCC1` [NS389] as the molecule, how does the IC50 (PC-3; MTT, 72 h exposure) read?
**A.** The IC50 was over 200 µM.

**Q.** And the IC50 (DU145; MTT, 72 h exposure)?
**A.** Its IC50 is over 200 µM.

**Q.** What about the IC50 (LNCaP) of the same molecule?
**A.** Its IC50 is 65.5 ± 9.46 µM.

**Q.** And the IC50 (human cancer cell lines)?
**A.** The IC50 was over 200 µM.

**Q.** And the IC50 (SKBR-3; MTT, 72 h exposure)?
**A.** The IC50 was over 200 µM.

**Q.** And the IC50 (MCF-7; 72 h exposure)?
**A.** The IC50 was over 200 µM.

**Q.** And the IC50 (DLD-1; 72 h exposure)?
**A.** Its IC50 is over 200 µM.

**Q.** And the IC50 (LOVO; MTT, 72 h exposure)?
**A.** The IC50 was over 200 µM.

**Q.** `O=C1Nc2ccccc2/C1=C1/Nc2ccccc2C1=O` [Indirubin] was tested. Which “Inhibition (%)” value (Walker 256) did it give?
**A.** The value was 59.4 ± 2.9%.

**Q.** What about the “Tumor Size X ± SD” value (Walker 256) of the same molecule?
**A.** Its value is 3.94 ± 0.71.

**Q.** And the “Inhibition (%)” value (Lewis Lung Cancer)?
**A.** The value was 26.3 ± 2.8%.

**Q.** What about the “Tumor Size X ± SD” value (Lewis Lung Cancer) of the same molecule?
**A.** The value was 2.58 ± 0.21.

**Q.** What does the source list for `CC1=C(/C=C/C(C)=C/C=C/C(C)=C/C(=O)O)C(C)(C)CCC1` [Retinoid Acid]?
**A.** IC50 (PC-3; MTT, 72 h exposure): > 50 µM; IC50 (DU145; MTT, 72 h exposure): > 50 µM; IC50 (LNCaP): 16 ± 3.19 µM; IC50 (human cancer cell lines): ≥ 21.4 µM; IC50 (SKBR-3; MTT, 72 h exposure): > 50 µM; IC50 (MCF-7; 72 h exposure): 21.4 ± 3.78 µM; IC50 (DLD-1; 72 h exposure): 49.7 ± 5.72 µM; IC50 (LOVO; MTT, 72 h exposure): 75.3 ± 12.5 µM

**Q.** Which IC50 (PC-3; [4]) does the source give for `CC(O)(CS(=O)(=O)c1ccc(F)cc1)C(=O)Nc1ccc(C#N)c(C(F)(F)F)c1` (centres unmarked) [Casodex] here?
**A.** Its IC50 is 120 ± 17.3 µM.

**Q.** What about the IC50 (LNCaP; Homo sapiens, LNCaP) of the same molecule?
**A.** The IC50 was 57.4 ± 7.21 µM.

**Q.** Which micronuclei [2] does the source give for `O=P1(N(CCCl)CCCl)NCCCO1` (centres unmarked) [Cyclophosphamine] here?
**A.** Its micronuclei is 41.16 per thousand.

**Q.** Which inhibition at 50 µM [3] does the source give for `O=c1c(-c2ccc(O)cc2)coc2cc(O)cc(O)c12` [genistein] here?
**A.** Its inhibition at 50 µM is about 56%.

**Q.** Which results are given for `COc1cccc2c1C(=O)c1c(O)c3c(c(O)c1C2=O)C[C@@](O)(C(C)=O)C[C@@H]3O[C@H]1C[C@H](N)[C@H](O)[C@H](C)O1` [Daunomycin]?
**A.** IC50 (PC-3; Homo sapiens, PC-3, 72 h): 0.24 ± 0.018 µM; IC50 (DU145; Homo sapiens, DU-145, 72 h): 0.107 ± 0.004 µM; IC50 (SKBR-3; Homo sapiens, SK-BR-3, 72 h): 0.061 ± 0.0051 µM; IC50 (MCF-7; Homo sapiens, MCF7, 72 h exposure): 0.054 ± 0.011 µM; IC50 (DLD-1; [5]): 0.094 ± 0.013 µM; IC50 (LOVO; Homo sapiens, LoVo, 72 h): 0.035 ± 0.004 µM

**Q.** For `CC(=O)O[C@H]1C(=O)[C@@]2(C)[C@H]([C@H](OC(=O)c3ccccc3)[C@]3(O)C[C@H](OC(=O)[C@H](O)[C@@H](NC(=O)c4ccccc4)c4ccccc4)C(C)=C1C3(C)C)[C@]1(OC(C)=O)CO[C@@H]1C[C@@H]2O` [Paclitaxel], which IC50 (DLD-1; [5]) is on record?
**A.** The IC50 was 0.00315 ± 0.00037 µM.

**Q.** What about the IC50 (LOVO; Homo sapiens, LoVo, MTT, 72 h exposure) of the same molecule?
**A.** Its IC50 is 0.00364 ± 0.00051 µM.
